Data taken from patent US7030096B1, “Method of enhancing relaxation of penile smooth muscle by introduction of DNA encoding maxi-K potassium channel protein” (Albert Einstein College of Medicine of Yeshiva University, priority 1997, dated 2006).
Read-outs that look alike come from different tables or passages of the source. Where no end group is shown, it is not given here.

Assays:
[1] = system: L-type Ca^2+ channel; conditions: cited from earlier work
[2] = system: corporal smooth muscle; conditions: cited from earlier work
[3] = system: KATP channel; conditions: Table 4; cited from earlier work
[4] = system: precontracted corporal tissue strips; conditions: from both animals and humans; cited from earlier work
[5] = system: monkeys and humans; conditions: cited from earlier work
[6] = system: isolated human corporal tissue strips; format: cell-based
[7] = target: T1, maxi-K channel (Homo sapiens, UniProt Q12791); format: cell-based
T1 sequence (Q12791 whole entry): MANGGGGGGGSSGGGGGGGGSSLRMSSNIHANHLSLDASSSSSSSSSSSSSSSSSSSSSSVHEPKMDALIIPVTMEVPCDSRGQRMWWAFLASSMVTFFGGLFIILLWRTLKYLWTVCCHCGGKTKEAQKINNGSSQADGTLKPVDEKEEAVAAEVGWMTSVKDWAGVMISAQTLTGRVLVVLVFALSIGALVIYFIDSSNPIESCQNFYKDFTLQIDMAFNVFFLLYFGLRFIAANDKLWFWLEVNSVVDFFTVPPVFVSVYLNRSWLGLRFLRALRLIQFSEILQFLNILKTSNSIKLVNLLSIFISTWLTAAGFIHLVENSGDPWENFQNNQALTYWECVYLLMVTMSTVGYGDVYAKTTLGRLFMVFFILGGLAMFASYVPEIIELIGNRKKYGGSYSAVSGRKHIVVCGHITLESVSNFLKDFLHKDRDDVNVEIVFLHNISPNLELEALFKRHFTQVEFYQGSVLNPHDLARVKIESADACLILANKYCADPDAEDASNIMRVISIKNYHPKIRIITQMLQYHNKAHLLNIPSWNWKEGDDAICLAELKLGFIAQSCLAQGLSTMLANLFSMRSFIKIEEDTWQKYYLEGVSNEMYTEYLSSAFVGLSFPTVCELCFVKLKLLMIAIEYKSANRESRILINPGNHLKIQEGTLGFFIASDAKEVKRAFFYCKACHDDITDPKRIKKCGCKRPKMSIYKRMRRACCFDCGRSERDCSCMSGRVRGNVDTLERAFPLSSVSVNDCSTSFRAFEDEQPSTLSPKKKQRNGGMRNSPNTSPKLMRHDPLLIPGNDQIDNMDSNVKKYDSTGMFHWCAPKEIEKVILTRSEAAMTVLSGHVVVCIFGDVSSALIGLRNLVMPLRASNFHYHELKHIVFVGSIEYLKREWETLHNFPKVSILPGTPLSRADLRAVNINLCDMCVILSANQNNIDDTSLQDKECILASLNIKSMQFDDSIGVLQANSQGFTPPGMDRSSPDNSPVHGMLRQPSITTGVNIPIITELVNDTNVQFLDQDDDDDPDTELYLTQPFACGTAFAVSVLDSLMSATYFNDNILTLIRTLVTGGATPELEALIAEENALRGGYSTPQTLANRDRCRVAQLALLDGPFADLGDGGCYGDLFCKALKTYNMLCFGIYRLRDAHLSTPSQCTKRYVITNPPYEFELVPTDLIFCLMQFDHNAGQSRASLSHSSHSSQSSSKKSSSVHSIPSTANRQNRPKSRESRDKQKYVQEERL

[8] = system: isolated human corporal tissue strips; conditions: cited from earlier work
[9] = system: cultured human corporal smooth muscle cells; experiment: Resting and ET-1-induced intracellular calcium in fura-2-loaded cultured cells; format: cell-based; conditions: transfection with hSlo cDNA or preincubation with PGE1 (500 nM)
Experimental: Urol., 155:[…], 1996). This decrease is indistinguishable from the decrease seen in the absence of extracellular Ca^2+ (in 2 mM EGTA), or when cells are preincubated with either nifedipine (Zhao and Christ, J. Urol., 154:1571-79, 1995) or verapamil, both of which are blockers of the L-type voltage-dependent calcium channel. [table]

[10] = system: cultured human corporal smooth muscle cells; conditions: preincubation with 500 nM PGE1, cited from earlier work
[11] = target: T1, maxi-K channel; conditions: all four recording modes; cited from earlier work
[12] = target: KCa channel (Homo sapiens, UniProt Q12791); conditions: Table 4; cited from earlier work
Sequence of KCa channel (Q12791 whole entry): as above

For “endothelin-1 (CSCSSLMDKECVYFCHLDIIW; ends and bridges not checked; cysteine pairing not given here; UniProt P05305 53-73, looked up) [ET-1]”, the “Channel Type Affected: L-type Ca^2+” value ([1]; Table 4) is given as “increases” and the “Effect on Smooth Muscle Tone” value ([2]; Table 4) is given as “increased tone”.
For `CC(N/C(=N\C#N)Nc1ccncc1)C(C)(C)C` (stereo not shown) [pinacidil], the “Channel Type Affected: KATP” value [3] is given as “KATP increases”, the “effect on precontracted corporal tissue strips” value [4] is given as “relax” and the “effect when injected intracavernosally” value [5] is given as “elicit an erection”. The “Effect on Smooth Muscle Tone” value ([2]; Table 4) was “decreased tone”.
In the case of `O=[N+]([O-])OCC(CO[N+](=O)[O-])O[N+](=O)[O-]` [NTG, nitroglycerine], the “percent relaxation response elicited by 100 nM nitroglycerine” value [6] was 20.3%±3.2, the Channel activity increased [7] was “YES” and the “maxi-K channel activity (attached patch recording mode)” value [7] was “increase in maxi-K channel activity”. For the same molecule, the “expected percent relaxation response elicited by 100 nM nitroglycerine” value [8] was 50.1%, the “Channel Type Affected: L-type Ca^2+” value [1] was “decreases” and the “Effect on Smooth Muscle Tone” value [2] was “decreased tone”.
In the case of `CCCCC[C@H](O)/C=C/[C@H]1[C@H](O)CC(=O)[C@@H]1CCCCCCC(=O)O` [PGE1, prostaglandin E1], the “ET-1-induced calcium response decreased” value [9] is listed as “YES”, the Channel activity increased ([7]; 100 μM NTG or 30 nM–30 μM PGE1) is listed as “YES” and the “decrease in peak amplitude of the ET-1-induced (50 nM) calcium transient” value [10] is listed as “≈ 40%”. The “peak amplitude of the ET-1-induced (50 nM) calcium transient above baseline” value ([10]; control value 161.5±19.5 nM) was 102.6 ± 9.5 nM, the “activity of the maxi-K channel” value [11] was “concentration-dependent increase” and the “Channel Type Affected: KCa” value [12] was “KCa increases”. The “Effect on Smooth Muscle Tone” value ([2]; Table 4) was “decreased tone”.
With `CC[N+](CC)(CC)CC` [TEA, tetraethylammonium] the PE-induced contraction increased [6] was “YES”, the Relaxation response decreased [6] was “YES” and the “Resting corporal smooth muscle tone increased” value [6] was “YES”. For the same molecule, the “effect on NTG-induced relaxation response (100 nM)” value [6] was “significant attenuation”, the “Channel Type Affected: KCa” value [12] was “KCa decreases” and the “Effect on Smooth Muscle Tone” value [2] was “increased tone”.
In the case of `O=C(NCCO[N+](=O)[O-])c1cccnc1` [nicorandil], the “effect on precontracted corporal tissue strips” value [4] is given as “relax” and the “effect when injected intracavernosally” value [5] is given as “elicit an erection”.
For `CNC[C@H](O)c1cccc(O)c1` [PE, phenylephrine], the “Channel Type Affected: KCa” value [12] is given as “KCa increases” and the “Effect on Smooth Muscle Tone” value ([2]; Table 4) is given as “modulates increase”.
For `CC1(C)Oc2ccc(C#N)cc2[C@@H](N2CCCC2=O)[C@@H]1O` [lemakalim], the “effect on precontracted corporal tissue strips” value [4] is given as “relax” and the “effect when injected intracavernosally” value [5] is given as “elicit an erection”.
For `COc1ccc(Cl)cc1C(=O)NCCc1ccc(S(=O)(=O)NC(=O)NC2CCCCC2)cc1` [Glibenclamide, glibenclamide], the “Channel Type Affected: KATP” value [3] is listed as “KATP decreases” and the “Effect on Smooth Muscle Tone” value ([2]; Table 4) is listed as “increased tone”.
In the case of `[Cl-].[K+]` [KCl], the “Channel Type Affected: KATP” value [3] is listed as “KATP increases” and the “Effect on Smooth Muscle Tone” value ([2]; Table 4) is listed as “modulates increase”.
For `CC1(C)Oc2ccc(C#N)cc2C(N2CCCC2=O)C1O` (stereo not shown) [cromakalim], the “effect on precontracted corporal tissue strips” value [4] is given as “relax” and the “effect when injected intracavernosally” value [5] is given as “elicit an erection”.
